Assay results taken from patent publication US8927570B2, “1-naphthyl-or 1-dihydroacenaphthenyl-pyrido[B]indoles and uses thereof in treating cancers” (priority 2009, dated 2015).

Assays:
[1] = tested on: cultured normal human fibroblasts; assay: Flow cytometry, cell cycle kinetics of cultured normal human fibroblasts; assay type: cell-based; conditions: 15 mM in 0.1% DMSO; for selectivity between cancer cells and normal (fibroblast) cells: flow cytometry cell cycle kinetics
Method: (§1) Flow cytometry experiments were performed to show the effects of Compound 19, and anticancer drugs Adriamycin or Camptothecin treatment on the cell cycle kinetics of various human cells (FIGS. 8A-8I and 9A-9I), MCF-7 breast cancer cells (FIGS. 5A-5F), A549 lung cancer cells (FIGS. 7A-7I), LNCaP (FIGS. 10A-10I), DU145 (FIGS. 11A-11I) and PC-3 (FIGS. 12A-12I) prostate cancer cells, as well as cultured normal human fibroblasts (FIGS. 6A-6F). The compound or drugs were applied at a concentration of 15 mM in 0.1% DMSO as the vehicle, and cells incubated for the time point indicated in hours (hr). The control samples were treated with vehicle without compound or drug. Red histograms represent cells in the G1/G0 phase (histogram to the left) and cells in the G2/M phases (histogram to the right). The interval between the G1/G) and G2/M histograms is the S-phase of the cell cycle. The subG1/GO histograms (cyan colored) represent cells undergoing apoptosis (programmed cell death).

[2] = tested on: HCT116, MCF-7, A549, LNCaP, DU145 and PC-3 cancer cells; assay: Flow cytometry, cell cycle kinetics of cancer cells; assay type: cell-based, human; conditions: 15 mM in 0.1% DMSO
Method: as §1

[3] = tested on: HCT116 colon cancer cells; assay: In vitro antiproliferative activity, HCT116 colon cancer cells; assay type: cell-based; conditions: Homo sapiens, HCT-116, Table 1
Method: (§2) Substituted β-carboline compounds 4 to 38 were tested for antiproliferative activity against HCT116 colon cancer cells and HPAC, Mia-PaCa2 and Panc-1 pancreatic cancer cell lines. Table 1 lists the IC50 values for the substituted β-carbolines.

HCT116 P53 −/− = assay: In vitro antiproliferative activity, HCT116 P53 −/− cells; assay type: cell-based; conditions: Homo sapiens, HCT-116, Table 1
Method: as §2

[4] = tested on: HPAC pancreatic cancer cell line; assay: In vitro antiproliferative activity, HPAC pancreatic cancer cell line; assay type: cell-based; conditions: Homo sapiens
Method: as §2
(§3) Substituted β-carbolines and analog compounds 39 to 57 were tested for antiproliferative activity against HPAC, Mia-PaCa2 and Panc-1 pancreatic cancer cell lines and MCF-7 and MDA-MB-468 breast cancer cell lines. Table 2 lists the IC50 values for the substituted β-carbolines and analogs thereof.

[5] = tested on: Mia-PaCa2 pancreatic cancer cell line; assay: In vitro antiproliferative activity, Mia-PaCa2 pancreatic cancer cell line; assay type: cell-based; conditions: Homo sapiens
Method: as §2, §3

[6] = tested on: Panc-1 pancreatic cancer cell line; assay: In vitro antiproliferative activity, Panc-1 pancreatic cancer cell line; assay type: cell-based, human; conditions: Homo sapiens
Method: as §3

[7] = tested on: DU145 prostate cancer xenografts; assay: Antitumor activity in nude mice bearing DU145 prostate cancer xenografts; assay type: in vivo
Method: FIGS. 4A-4B illustrate antitumor activity on tumor growth (FIG. 4A) and on body weight (FIG. 4B) of compound 19 treatment in nude mice bearing human DUI145 prostate cancer xenografts.
Nude mice bearing DU145 prostate cancer xenografts were administered i.p. 10 mg/kg, 20 mg/kg or control of compound 19 and tumor growth (FIG. 4A) and body weight (FIG. 4B) was monitored over 25 days. […]

[8] = tested on: Panc-1 pancreatic cancer xenografts; assay: Antitumor activity in nude mice bearing Panc-1 pancreatic cancer xenografts; assay type: in vivo; conditions: 40 mg/kg i.p., after 18 days
Method: FIGS. 3A-3B illustrate antitumor activity on tumor mass (FIG. 3A) and on body weight (FIG. 3B) of compound 19 treatment in nude mice bearing Panc-1 human pancreatic cancer xenografts.
(§4) Nude mice bearing MDA-MB-468 breast cancer (FIGS. 2A-2B) and Panc-1 pancreatic cancer (FIGS. 3A-3B) xenografts were administered 40 mg/kg i.p. of compound 19 and tumor mass and body weights were measured daily for 18 days compared to a PEG-ethanol-saline control.

[9] = tested on: MDA-MB-468 breast cancer xenografts; assay: Antitumor activity in nude mice bearing MDA-MB-468 breast cancer xenografts; assay type: in vivo; conditions: 40 mg/kg i.p., after 18 days
Method: FIGS. 2A-2B illustrate antitumor activity on tumor mass (FIG. 2A) and on body weight (FIG. 2B) of compound 19 treatment in nude mice bearing human MDA-MB-468 breast cancer xenografts.
as §4

[10] = tested on: MCF-7 breast cancer cell line; assay: In vitro antiproliferative activity, MCF-7 breast cancer cell line; assay type: cell-based, human; conditions: Homo sapiens, MCF7, Table 2
Method: as §3

[11] = tested on: MDA-MB-468 breast cancer cell line; assay: In vitro antiproliferative activity, MDA-MB-468 breast cancer cell line; assay type: cell-based, human; conditions: Homo sapiens, Table 2
Method: as §3

SMILES	IC50 ([5]; MIA PaCa-2, Table 2)	IC50 ([6]; Table 2)	IC50 [10]	IC50 ([4]; Table 2)	IC50 [11]	also measured
COc1cccc2c1C(=O)c1c(O)c3c(c(O)c1C2=O)C[C@@](O)(C(=O)CO)C[C@@H]3O[C@H]1C[C@H](N)[C@H](O)[C@H](C)O1 [Adriamycin]						selectivity between cancer cells and normal (fibroblast) cells [1]: did not show selectivity; cell cycle arrest mechanism in cancer cells [2]: primarily G1 phase arrest
CC[C@@]1(O)C(=O)OCc2c1cc1n(c2=O)Cc2cc3ccccc3nc2-1 [Camptothecin]						selectivity between cancer cells and normal (fibroblast) cells [1]: did not show selectivity; cell cycle arrest mechanism in cancer cells [2]: primarily G1 phase arrest
COc1ccc2[nH]c3c(-c4ccoc4)nccc3c2c1 [Compound 9, 1-Furan-3-yl-6-methoxy-9H-β-carboline]						IC50 [3]: 60.9 µM; IC50 (HCT116 P53 −/−): 53.7 µM; IC50 ([4]; Table 1): 45.1 µM
COc1ccc2c(c1)[nH]c1c(-c3ccnc4ccccc34)nccc12 [Compound 10, 7-Methoxy-1-quinolin-4-yl-9H-β-carboline]						IC50 [3]: 7 µM; IC50 (HCT116 P53 −/−): 18.7 µM
COc1ccc2[nH]c3c(-c4ccnc5ccccc45)nccc3c2c1 [Compound 11, 6-Methoxy-1-quinolin-4-yl-9H-β-carboline]						IC50 ([5]; MIA PaCa-2, Table 1): 0.49 µM; IC50 ([6]; Table 1): 0.58 µM; IC50 [3]: 0.51 µM; IC50 (HCT116 P53 −/−): 0.46 µM; IC50 ([4]; Table 1): 0.56 µM
COc1ccc2[nH]c3c(-c4cccc5ccccc45)nccc3c2c1 [Compound 19, 6-Methoxy-1-naphthalen-1-yl-9H-β-carboline]						IC50 ([5]; MIA PaCa-2, Table 1): 0.2 µM; IC50 ([6]; Table 1): 0.29 µM; perturbation of the cell cycle of normal human cells ([1]; normal human fibroblasts): no significant perturbation; IC50 [3]: 0.13 µM; cell cycle arrest mechanism in cancer cells [2]: G2/M arrest mechanism(s); IC50 ([4]; Table 1): 0.29 µM; body weight ([7]; 10 mg/kg and 20 mg/kg i.p., over 25 days): remained fairly constant; percent of tumor growth ([7]; 10 mg/kg i.p., at about day 7): less than control; rate of tumor growth ([7]; 10 mg/kg i.p., over the 25 days): about equivalent to that of control; tumor growth ([7]; 20 mg/kg i.p., over 25 days): significant decrease in tumor growth compared to 10 mg/kg and control; body weight [8]: nor had body weight decreased; tumor mass ([8]; vs PEG-ethanol-saline control): had not increased; body weight [9]: nor had body weight decreased; tumor mass ([9]; vs PEG-ethanol-saline control): had not increased
Cc1ccc2[nH]c3c(-c4cccc5c(Br)cccc45)nccc3c2c1 [Compound 46, 1-(5-bromonaphthalen-1-yl)-6-methyl-9H-pyrido[3,4-b]indole]	41.7 µM	> 50 µM	> 50 µM	> 50 µM	> 50 µM	
Clc1ccc2sc3c(-c4cccc5ccccc45)nccc3c2c1 [Compound 48, 6-Chloro-1-(naphthalen-1-yl)benzo[4,5]thieno[2,3-c]pyridine]	13.5 µM	> 50 µM	48.6 µM	50 µM	6.05 µM	

Further lines, with some results ahead:

IC50 ([5]; MIA PaCa-2, Table 2)	IC50 ([6]; Table 2)	IC50 [10]	IC50 ([4]; Table 2)	IC50 [11]	SMILES	also measured
33.6 µM	> 50 µM	> 50 µM	> 50 µM	50 µM	c1ccc2c(-c3nccc4c3oc3ccccc34)cccc2c1 [Compound 49, 1-(naphthalen-1-yl)benzofuro[2,3-c]pyridine]	
> 50 µM	> 50 µM	> 50 µM	> 50 µM	14.7 µM	c1ccc2c(-c3nccc4c3sc3ccccc34)cccc2c1 [Compound 50, 1-(Naphthalen-1-yl)benzo[4,5]thieno[2,3-c]pyridine]	
13.1 µM	> 50 µM	6.78 µM	> 50 µM	6.54 µM	Cc1ccc2[nH]c3c(-c4cccc5ccccc45)nccc3c2c1 [Compound 51, 6-Methyl-1-(naphthalen-1-yl)-9H-pyrido[3,4-b]indole]	
8.63 µM	> 50 µM	7.61 µM	35.5 µM	4.99 µM	FC(F)(F)Oc1ccc2[nH]c3c(-c4cccc5ccccc45)nccc3c2c1 [Compound 52, 1-(Naphthalen-1-yl)-6-(trifluoromethoxy)-9H-pyrido[3,4-b]indole]	
40.4 µM	> 50 µM	> 50 µM	50 µM	30.2 µM	N#Cc1ccc2[nH]c3c(-c4cccc5ccccc45)nccc3c2c1 [Compound 53, 1-(Naphthalen-1-yl)-9H-pyrido[3,4-b]indole-6-carbonitrile]	
26.2 µM	30.3 µM	11.4 µM	10.9 µM	5.09 µM	Brc1ccc2[nH]c3c(-c4cccc5ccccc45)nccc3c2c1 [Compound 54, 6-Bromo-1-(naphthalen-1-yl)-9H-pyrido[3,4-b]indole]	
17.5 µM	23.3 µM	17.6 µM	12.9 µM	5.67 µM	CCOC(=O)c1cc2c([nH]c3ccc(OC)cc32)c(-c2cccc3ccccc23)n1 [Compound 55, Ethyl-6-methoxy-1-(naphthalen-1-yl)-9H-pyrido[3,4-b]indole-3-carboxylate]	
37.4 µM	33.9 µM	50.8 µM	21.2 µM	14.2 µM	Cn1c2ccccc2c2ccnc(-c3cccc4ccccc34)c21 [Compound 56, 9-Methyl-1-(naphthalen-1-yl)-9H-pyrido[3,4-b]indole]	
34 µM	41.3 µM	52 µM	44.2 µM	17.8 µM	COc1ccc2c(c1)c1ccnc(-c3cccc4ccccc34)c1n2C [Compound 57, 6-Methoxy-9-methyl-1-(naphthalen-1-yl)-9H-pyrido[3,4-b]indole]	
